# Measured values reported in patent US20250136581A1, “SUBSTITUTED TRIAZOLE DERIVATIVE, PREPARATION METHOD THEREFOR, PHARMACEUTICAL COMPOSITION THEREOF, AND USE THEREOF” (SHANGHAI SIMR BIOTECHNOLOGY CO., LTD., priority 2021, published 2025).
# Target: human α5β3γ2 receptors (α5-GABAA receptor) (Homo sapiens (Human), UniProt P18507+P31644)
# Test: 3H-flunitrazepam competition binding, human α5β3γ2 GABAA receptor
# Details: HEK293 cell membranes, 1 nM 3H-flunitrazepam; read-out: α5-GABAAR Ki
# Procedure: The affinity of the compound to each subtype of GABAA receptor was determined by competing for the binding of ^3H-flunitrazepam to HEK293 cells stably expressing human α1β3γ2, α2β3γ2, α3β3γ2, and α5β3γ2 receptors.
# The cells were suspended in 50 mM Tris-HCl buffer (pH=7.4), homogenized 10 times on ice with a homogenizer for 20 seconds, and centrifuged at 1000 g for 10 minutes at 4° C. The supernatant was collected, and the above steps were repeated. The supernatant was centrifuged at 4° C. (33800 g; Thermo, rotor: A27-8×50) for 60 minutes, and the precipitate was resuspended in Tris buffer (50 mM Tris-HCl, 10 mM MgCl2, 0.5 mM EDTA, 10% glycerol). Protein was measured (BCA method, Pierce), and 1 mL aliquots were prepared and stored at −80° C.
# The radioligand competition binding assay was performed in a 200 μL system (96-well plate) containing 100 μL of cell membrane. The concentration of ^3H-flunitrazepam was 1 nM and the concentration of the test compound was in the range of […]. Flumazenil was used as a control. 1 μL of 2 mM flumazenil (final concentration […]) was added to the low signal control well (Low control, LC), and 1 μL of DMSO was added to the high signal control well (High control, HC). The final concentration of target membrane protein was […]. All test compound sample storage solutions were 10 mM. The working concentration of the samples was to dilute all the samples to 0.2 mM with DMSO, followed by 4-fold serial gradient dilutions for a total of 8 concentration gradients. The 96-well plate was sealed with a sealing film, and then incubated on a shaker at room temperature for 1 hour. At the same time, the GF/C filter plate was soaked in soaking buffer (0.3% PEI, stored at 4° C.) for at least 0.5 hours. After the binding incubation was completed, the cells were collected onto a GF/C filter plate using a cell harvester. The plate was washed four times with washing buffer (50 mM Tris-HCl, pH 7.4, stored at 4° C.). After drying in a 50° C. oven for 1 hour, the bottom of the dried GF/C filter plate was sealed. The residual radioactivity on the filter membrane was detected using liquid scintillation counting. 50 μL of scintillation fluid was added to each well, and the plate was sealed. The readings were taken using a Microbeta2. The inhibitory activity of the test sample on the binding of ^3H-flunitrazepam to GABAA receptor membrane proteins was calculated, and the IC50 of each test sample was calculated by dose-effect curve fitting (GraphPad Prism 5 software), and the Ki of the sample was calculated from the IC50, thus evaluating the binding ability of the sample to the various subtypes of GABAA receptors.
row,Ki,Compound
1,0.64 nM,"Cc1nnn(-c2ccc(C(F)F)cc2)c1COc1nnc(N2CCN3CCNC(=O)[C@@H]3C2)c2ncccc12 [Example 206, (S)-8-(5-((1-(4-(Difluoromethyl)phenyl)-4-methyl-1H-1,2,3-triazol-5-yl)methoxy)pyrido[2,3-d]pyridazin-8-yl)hexahydro-2H-pyrazino[1,2-a]pyrazin-1(6H)-one]"
2,40.6 nM,"Cc1cc(-c2nnn(-c3ccc(C(F)F)cc3)c2COc2ccc(N3CCNC(=O)C3)nn2)no1 [Example 188, 4-(6-((1-(4-(Difluoromethyl)phenyl)-4-(5-methylisoxazol-3-yl)-1H-1,2,3-triazol-5-yl)methoxy)pyridazin-3-yl)piperazin-2-one]"
3,4.62 nM,O=C1CN(c2ccc(OCc3c(CC4CC4)nnn3-c3ccc(C(F)F)cc3)nn2)CCN1 [Example 186]
4,36.1 nM,Cc1nnn(-c2ccc(C(F)F)cc2)c1COc1ccc(N2CC(C(C)C)N3CCNC[C@H]3C2=O)nn1 (some centres unmarked) [Example 215]
5,1.34 nM,"Cc1nnn(-c2ccc(C(F)F)cc2)c1COc1ccc(N2CC(=O)N3CCS(=O)(=O)C[C@@H]3C2)nn1 [Example 176, (S)-8-(6-((1-(4-(Difluoromethyl)phenyl)-4-methyl-1H-1,2,3-triazol-5-yl)methoxy)pyridazin-3-yl)hexahydropyrazino[2,1-c][1,4]thiazin-6(1H)-one 2,2-dioxide]"
6,2.63 nM,"Cc1nnn(-c2ccc(C(F)F)cc2)c1COc1ccc(N2CC(=O)N3CCS(=O)(=O)C[C@H]3C2)nn1 [Example 175, (R)-8-(6-((1-(4-(Difluoromethyl)phenyl)-4-methyl-1H-1,2,3-triazol-5-yl)methoxy)pyridazin-3-yl)hexahydropyrazino[2,1-c][1,4]thiazin-6(1H)-one 2,2-dioxide]"
7,40.1 nM,"Cc1nnn(-c2ccc(F)cc2)c1COc1ccc(N2CCN3CCOC[C@@H]3C2)nn1 [Example 126, (S)-8-(6-((1-(4-Fluorophenyl)-4-methyl-1H-1,2,3-triazol-5-yl)methoxy)pyridazin-3-yl)octahydropyrazino[2,1-c][1,4]oxazine]"
8,2.1 nM,"Cc1nnn(-c2ccc(C(F)F)cc2)c1COc1ccc(N2CCN3CC(c4cccc(Cl)c4)NC(=O)[C@@H]3C2)nn1 (stereo partly drawn) [Example 205, (9aS)-3-(3-Chlorophenyl)-8-(6-((1-(4-(difluoromethyl)phenyl)-4-methyl-1H-1,2,3-triazol-5-yl)methoxy)pyridazin-3-yl)hexahydro-2H-pyrazino[1,2-a]pyrazin-1(6H)-one]"
9,54.1 nM,"Cc1nnn(-c2ccc(C(F)F)cc2)c1COc1ccnc(N2CCNC(=O)C2)n1 [Example 213, 4-(4-((1-(4-(Difluoromethyl)phenyl)-4-methyl-1H-1,2,3-triazol-5-yl)methoxy)pyrimidin-2-yl)piperazin-2-one]"

# More lines, now with the values behind:
row,Compound,Ki
1,"Cc1nnn(-c2ccc(C(F)F)cc2)c1COc1ccc(N2CC(C(=O)NC3CCOC3)C2)nn1 (centres unmarked) [Example 51, 1-(6-((1-(4-(Difluoromethyl)phenyl)-4-methyl-1H-1,2,3-triazol-5-yl)methoxy)pyridazin-3-yl)-N-(tetrahydrofuran-3-yl)azetidine-3-carboxamide]",6.17 nM
2,"Cc1nnn(-c2ccc(C(F)F)cc2)c1COc1ccc(N2CCN3CCCNC(=O)[C@@H]3C2)nn1 [Example 120, (S)-2-(6-((1-(4-(Difluoromethyl)phenyl)-4-methyl-1H-1,2,3-triazol-5-yl)methoxy)pyridazin-3-yl)octahydropyrazino[1,2-a][1,4]diaza-10(2H)-one]",27.2 nM
3,"Cc1nnn(-c2ccc(C(F)F)cc2)c1COc1ccc(N2CCCNC(=O)C2)nn1 [Example 4, 4-(6-((1-(4-(Difluoromethyl)phenyl)-4-methyl-1H-1,2,3-triazol-5-yl)methoxy)pyridazin-3-yl)-1,4-diazepan-2-one]",7.25 nM
4,"Cc1nnn(-c2ccc(C(F)F)cc2)c1COc1ccc(N2CCN(Cc3ncccn3)C(=O)C2)nn1 [Example 93, 4-(6-((1-(4-(Difluoromethyl)phenyl)-4-methyl-1H-1,2,3-triazol-5-yl)methoxy)pyridazin-3-yl)-1-(pyrimidin-2-ylmethyl)piperazin-2-one]",3.14 nM
5,"CCNC(=O)[C@H]1CCCN1c1ccc(OCc2c(C)nnn2-c2ccc(C(F)F)cc2)nn1 [Example 41, (R)-1-(6-((1-(4-(Difluoromethyl)phenyl)-4-methyl-1H-1,2,3-triazol-5-yl)methoxy)pyridazin-3-yl)-N-ethylpyrrolidine-2-carboxamide]",42.6 nM
6,"Cc1nnn(-c2ccc(C(F)F)cc2)c1COc1ccc(N2CCN(c3cnn(C)c3)C(=O)C2)nn1 [Example 111, 4-(6-((1-(4-(Difluoromethyl)phenyl)-4-methyl-1H-1,2,3-triazol-5-yl)methoxy)pyridazin-3-yl)-1-(1-methyl-1H-pyrazol-4-yl)piperazin-2-one]",0.93 nM
7,"Cc1nnn(-c2ccc(CO)cc2)c1COc1ccc(N2CCNC(=O)C2)nn1 [Example 79, 4-(6-((1-(4-(hydroxymethyl)phenyl)-4-methyl-1H-1,2,3-triazol-5-yl)methoxy)pyridazin-3-yl)piperazin-2-one]",32.5 nM
8,"Cc1nnn(-c2ccc(C(F)F)cc2)c1COc1ccc(N2CC(C(=O)Nc3ccnn3C)C2)nn1 [Example 102, 1-(6-((1-(4-(Difluoromethyl)phenyl)-4-methyl-1H-1,2,3-triazol-5-yl)methoxy)pyridazin-3-yl)-N-(1-methyl-1H-pyrazol-5-yl)azetidine-3-carboxamide]",2.14 nM
9,"Cc1nnn(-c2ccc(C(F)F)cc2)c1COc1ccc(N2CCNCC2=O)nn1 [Example 71, 1-(6-((1-(4-(Difluoromethyl)phenyl)-4-methyl-1H-1,2,3-triazol-5-yl)methoxy)pyridazin-3-yl)piperazin-one]",8.86 nM
10,"Cc1nnn(-c2ccc(C(F)F)cc2)c1COc1ccc(N2CCCC3(COC3)C2)nn1 [Example 85, 6-(6-((1-(4-(Difluoromethyl)phenyl)-4-methyl-1H-1,2,3-triazol-5-yl)methoxy)pyridazin-3-yl)-2-oxa-6-azaspiro[3.5]nonane]",2.24 nM
11,"CNC(=O)[C@@H]1CN(c2ccc(OCc3c(C)nnn3-c3ccc(C(F)F)cc3)nn2)CCO1 [Example 38, (S)-4-(6-((1-(4-(Difluoromethyl)phenyl)-4-methyl-1H-1,2,3-triazol-5-yl)methoxy)pyridazin-3-yl)-N-methylmorpholine-2-carboxamide]",2.48 nM
12,"Cc1nnn(-c2ccc(C(F)F)cc2)c1COc1ccc(N2CCN[C@H](C(=O)N(C)C)C2)nn1 [Example 31, (S)-4-(6-((1-(4-(Difluoromethyl)phenyl)-4-methyl-1H-1,2,3-triazol-5-yl)methoxy)pyridazin-3-yl)-N,N-dimethylpiperazine-2-carboxamide]",7.45 nM
13,"Cc1nnn(-c2ccc(C(F)F)cc2)c1COc1ccc(N2CCN(c3ccn(C)n3)C(=O)C2)nn1 [Example 112, 4-(6-((1-(4-(Difluoromethyl)phenyl)-4-methyl-1H-1,2,3-triazol-5-yl)methoxy)pyridazin-3-yl)-1-(1-methyl-1H-pyrazol-3-yl)piperazin-2-one]",0.81 nM

# Same assay, conditions: α5-GABAAR Ki, HEK293 cell membranes, 1 nM 3H-flunitrazepam
row,Compound,Ki
1,"CCNC(=O)C12CC(CN(c3ccc(OCc4c(C)nnn4-c4ccc(C(F)F)cc4)nn3)C1)C2 [Example 121, 3-(6-((1-(4-(Difluoromethyl)phenyl)-4-methyl-1H-1,2,3-triazol-5-yl)methoxy)pyridazin-3-yl)-N-ethyl-3-azabicyclo[3.1.1]heptane-1-carboxamide]",1.73 nM
